Earlier results in patent publication US20200077661A1, “METHOD AND "IDEPS" COMPOSITION FOR DESTROYING MICROORGANISMS IN A SESSILE STATE” (IDEPS GMBH, priority 2016, published 2020).

Test system: coagulase-negative staphylococci

## varnerin
16-128 μg/ml varnerin for 10 μg of biofilm, incubation at 37° C. for 24 hours
  destruction of the exopolymeric matrix: partial destruction
16-128 μg/ml varnerin for 10 μg of biofilm, incubation at 37° C. for 24 hours, biofilm formed within 24 hours
  bacterial cells die: up to 30%
Young biofilm (24 hours old)
  bacteria in the young biofilm not eliminated: up to 70%
